Several values for one entry are separate records, joined by “and”; a condition that tells them apart may be missing. Identical values can stand only once. Counter-ions that a name gives are not always drawn.

In EP2364976B1, “S1P receptor modulating compounds and use thereof” (EPIX Pharmaceuticals, Inc., priority 2007, dated 2007) one finds EC50 data, which are given here for 28 compounds.

In the test the target is T1, hS1P1 (Homo sapiens, UniProt P21453).
T1 construct: expressed in transfected cells
As to the kind of experiment: hS1P1 EC50 (S1P receptor Ca2+ flux protocol, FLIPR, CHO K1 Gqi5 cells). Format: cell-based. The note with it: several values per compound = repeat determinations as printed. The protocol:
S1P receptor activity may also be measured by an SIP receptor (e.g., hS1P1, hS1P3, rS1P1, rS1P3 and parental cell) Ca^2+ Flux protocol as described below: • 1. Material • a. FLIPR buffer: 1x HBSS; 10mM HEPES • b. Cell growth media: • i. human and rat S1P1 and S1P3: F12-Ham's media; 10% FBS (qualified); 1x Pen/Strep/Glu; 300ug/mL Hygromycin; 400ug/mL Geneticin ii. Parental cell: human and rat S1P and S1P3: F12-Ham's media; 10% FBS (qualified); 1x Pen/Strep/Glu; 300ug/mL Hygromycin; • c. Cell seeding media; F12-Ham's media; 10% FBS (Charcoal/dextran stripped); 1x Pen/Strep/Glu; • d. Cell dissociation buffer: Versene from Invitrogen • e. Agonist (SIP) dissolving buffer: 0.4% (w/v) fatty-acid free BSA (Sigma # A8806) in FLIPR buffer • f. FLIPR dye: BD PBX Calcium assay kit; Cat#641077 is composed of Calcium indicator (Cat#850000) and 100x PBX signal enhancer (cat#850001). The 100x PBX signal enhancer is diluted into FLIPR buffer 1:100 and the calcium indicator is then added at 1:1000 ratio. • g. Cell plates (96-well): Greiner Cat#655090 • h. Compound plates (96-well): Costar #3365 • i. S1P stock solution preparation: S1P is purchased from CalBioChem (Catalog # 970471; 1mg vial; custom prep using methanol, & nitrogen gas drying inside glass vial; Storage @ -20°C). Dissolve 1 vial of SIP into 26.4ml of agonist dissolving buffer in a 50ml centrifuge tube; Remove label from bottle of SIP, open and drop entire bottle into tube. Sonicate at 37° for ½ hour. Clear solution of 100µM will result. This stock solution is aliquoted and stored at -80C • 2. Cell line maintenance • a. V5 tags were added at the N-terminus of hS1P1, hS1P3, rS1P1 and rS1P3. All four genes were transfected into CHO K1 cells which stably express Gqi5. • b. hS1P1 and hS1P3 were established as stable clones and rS1P1 and rS1P3 were sorted by anti V5 tag and established as stable pools after sorting. • c. Parental cell line CHO/K1 Gqi5 is used as the control. • d. All the cells are maintained in cell growth media and splitted twice a week using Versene. • e. All the cell lines are used under passage 30. • 3. Assay protocol • a. Cell seeding: Cells are lifted from the flask by Versene and seeded in cell plates at 50K/well in cell seeding media. Cells are grown overnight at 37 degree. • b. Cell loading: Cell seeding media is discarded. Cells are loaded with 50ul of FLIPR dye at RT for 90 min. Signal is stable for up to 5 h after dye loading. • c. Agonist (S1P) preparation: Frozen stock of S1P is thawed out and sonicated at 37c for 30 minutes every time before use. The stock is then diluted into FLIPR buffer at proper concentration. • d. Compound preparation: Compounds are dissolved in DMSO. A 3x, 10 point dilution of the compounds are carried out in DMSO. Then the compounds are diluted into assay buffer133x so that the DMSO concentration is 0.75%. • e. Activity measurement: The fluorescence signal change of the cells upon compound addition is monitored in FLIPRtetra. 25ul of compound is transferred into the cell plates (50ul of FLIPR dye; DMSO concentration: 0.25%). Signal is recorded for 90sec after compound addition. Then 50ul of 500nM SIP is added in the cell plate, and signal is recorded for 90 seconds upon addition. • 4. Data analysis • a. Peak value is calculated for each compound/S1P addition • b. The peak value of S1P at 200nM is used as high control (100%), and the peak value of buffer only is used as low control (0%). • c. Data is normalized against high and low controls using the following equation: POC_S = 100*(RAW-LO)/(HI-LO) [formula] • d. Peak value is plotted against the concentration of compound. • e. Curve is fitted using the 4 parameter fit: Y = (A+(B/(1+(((x/C))^(∧)D)))) [formula] where: Y is POC_S (or POC) • X is compound concentration • A is the minimum (EC50min or IC50min) • B is the maxmum (EC50max or IC50max) • C is the inflection point (EC50IP or IC50IP) • D is the hill slope (EC50 slope or IC50 slope).

T1 sequence (P21453 whole entry): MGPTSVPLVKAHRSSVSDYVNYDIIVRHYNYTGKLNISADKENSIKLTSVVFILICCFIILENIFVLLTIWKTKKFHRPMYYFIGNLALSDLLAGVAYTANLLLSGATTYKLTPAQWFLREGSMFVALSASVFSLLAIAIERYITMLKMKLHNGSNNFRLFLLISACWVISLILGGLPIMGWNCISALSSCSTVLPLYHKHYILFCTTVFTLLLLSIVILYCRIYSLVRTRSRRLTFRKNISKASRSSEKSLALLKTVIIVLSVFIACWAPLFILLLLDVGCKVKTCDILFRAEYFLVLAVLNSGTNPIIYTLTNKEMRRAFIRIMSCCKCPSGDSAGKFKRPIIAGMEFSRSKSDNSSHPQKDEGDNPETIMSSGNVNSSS

With `O=C(O)C1CN(Cc2ccc(-c3cc4cc(C(=NO)c5ccccc5)ccc4o3)c(F)c2)C1` (mixture of isomers) [Reference Compound 103, (E/Z)-1-((3-Fluoro-4-(5-((hydroxyimino)(phenyl)methyl)benzofuran-2-yl)phenyl)methyl)azetidine-3-carboxylic acid], the concentration for a half-maximal effect (EC50) (in general, the concentration that produces a half-maximal response) worked out at 16 nM. For `O=C(O)C1CCN(Cc2ccc(-c3cc4cc(Cc5ccccc5)ccc4o3)c(F)c2)C1` (racemic) [Reference Compound 41], the response was half-maximal at 315 nM (EC50). As for `O=C(O)C1CN(Cc2ccc(-c3cc4cc(Cc5ccccc5)cnc4o3)c(F)c2)C1` [Inventive Compound 98, 1-((3-Fluoro-4-(5-(phenylmethyl)furo[2,3-b]pyridin-2-yl)phenyl)methyl)-3-azetidinecarboxylic acid], the half-maximal effective concentration (EC50) was 27 nM.

`O=C(O)C1CN(Cc2ccc(-c3nc4cc(Cc5ccccc5)ccc4s3)c(F)c2)C1` [Inventive Compound 114, 1-((4-(5-Benzylbenzo[d]thiazol-2-yl)-3-fluorophenyl)methyl)azetidine-3-carboxylic acid]: it took 29 nM to reach a half-maximal effect (EC50). As for `O=C(O)C1CN(Cc2ccc(-c3nc4cc(Sc5ccccc5)ccc4o3)c(F)c2)C1` [Inventive Compound 117, 1-((3-Fluoro-4-(5-(phenylthio)benzo[d]oxazol-2-yl)phenyl)methyl)azetidine-3-carboxylic acid], the figure is 3 nM; as for `O=C(O)C1CN(Cc2ccc(-c3cn4ccc(Cc5ccccc5)cc4n3)c(F)c2)C1` [Inventive Compound 119, 1-(4-(7-Benzyl-1H-imidazo[1,2-a]pyridin-2-yl)-3-fluorobenzyl)azetidine-3-carboxylic acid, trifluoroacetic acid salt], 54 nM; as for `O=C(O)C1CN(Cc2ccc(-c3cc4cc(-c5ccccc5)ccc4o3)cc2)C1` [Reference Compound 1, 1-(4-(5-Phenylbenzofuran-2-yl)benzyl)azetidine-3-carboxylic acid], 1200 nM. As for `CCCCc1ccc2oc(-c3ccc(CN4CC(C(=O)O)C4)cc3)cc2c1` [Reference Compound 2, 1-((4-(5-Butylbenzofuran-2-yl)phenyl)methyl)azetidine-3-carboxylic acid], the figure is 200 nM and 510 nM and 867 nM; as for `CCCCOc1ccc2oc(-c3ccc(CN4CC(C(=O)O)C4)cc3)cc2c1` [Reference Compound 3], 520 nM. As for `O=C(O)C1CN(Cc2ccc(-c3cc4cc(Cc5ccccc5)ccc4o3)cc2)C1` [Reference Compound 4, 1-((4-(5-Benzylbenzofuran-2-yl)phenyl)methyl)azetidine-3-carboxylic acid], the figure is 400 nM and 460 nM and 420 nM and 107 nM; as for `O=C(O)C1CN(Cc2ccc(-c3cc4cc(C5CCCCC5)ccc4o3)cc2)C1` [Reference Compound 6, 1-(4-(5-cyclohexylbenzofuran-2-yl)benzyl)azetidine-3-carboxylic acid], 970 nM and 400 nM and 440 nM and 421 nM. In turn, `O=C(O)C1CCN(Cc2ccc(-c3cc4cc(C5CCCCC5)ccc4o3)cc2)CC1` [Reference Compound 7, 1-(4-(5-cyclohexylbenzofuran-2-yl)benzyl)piperidine-4-carboxylic acid] showed a half-maximal effective concentration (EC50) of 1600 nM. With `CCCCc1ccc2oc(-c3ccc(CN4CCC(C(=O)O)CC4)cc3)cc2c1` [Reference Compound 8, 1-((4-(5-Butylbenzofuran-2yl)phenyl)methyl)pineridine-4-carbocylic acid] the figure was 3100 nM; with `O=C(O)C1CCN(Cc2ccc(-c3cc4cc(Cc5ccccc5)ccc4o3)cc2)CC1` [Reference Compound 9, 1-(4-(5-Benzylbenzofuran-2-yl)phenyl)methyl piperldine4-carboxylic acid], 4800 nM. With `CC(C)Cc1ccc2oc(-c3ccc(CN4CC(C(=O)O)C4)cc3)cc2c1` [Reference Compound 10, 1-((4-(5-isobutylbenzofuran-2-yl)phenyl)methyl)azetidine-3-carboxylic acid] the figure was 270 nM and 490 nM and 383 nM; with `O=C(O)C1CN(Cc2ccc(-c3cc4cc(CCc5ccccc5)ccc4o3)cc2)C1` [Reference Compound 11, 1-((4-(5-phenethylbenzofaran-2-yl)phenyl)methyl)azetidine-3-carboxylic acid], 580 nM; with `O=C(O)C1CN(Cc2ccc(-c3cc4cc(-c5cccnc5)ccc4o3)cc2)C1` [Reference Compound 12, 1-(4-(5-(pyridin-3-yl)benzofuran-2-yl)benzyl)azetidine-3-carboxylic acid], 3600 nM. For the compound `CC(C)Cc1ccc2oc(-c3ccc(CN4CCC(C(=O)O)CC4)cc3)cc2c1` [Reference Compound 13, 1-(4-(5-isobutylbenzofuran-2yl)benzyl)piperidine-4-carboxylic acid], a half-maximal effect (EC50) was put at 1700 nM.

On to `O=C(O)C1CN(Cc2ccc(-c3cc4cc(Cc5ccccc5)ccc4o3)cc2F)C1` [Reference Compound 14, 1-((4-(5-Benzylbenzofuran-2-yl)2-fluorophenyl)methyl)azetidine-3-carboxylic acid], for which the EC50 was 620 nM and 334 nM. As for `O=C(O)C1CN(Cc2ccc(-c3cc4cc(Cc5ccccc5)ccc4o3)c(F)c2)C1` [Reference Compound 15, 1-((4-(5-Benzylbenzofuran-2-yl)-3-fluorophenyl)methyl)azetidine-3-carboxylic acid], the figure is 160 nM and 38 nM; as for `CCCCOc1ccc2oc(-c3ccc(CN4CCC(C(=O)O)CC4)cc3)cc2c1` [Reference Compound 16], 17000 nM.

Turning to `O=C(O)C1CN(Cc2ccc(-c3cc4cc(C5CCCCC5)ccc4o3)nc2)C1` [Reference Compound 17, 1-((6-(5-cyclohexylbenzofuran-2-yl)pyridin-3-yl)methyl)azetidine-3-carboxylic acid], the EC50 was 720 nM and 302 nM.

As for `Cc1cccc(-c2ccc3oc(-c4ccc(CN5CC(C(=O)O)C5)cc4)cc3c2)n1` [Reference Compound 18, 1-(4-(5-(6-methylpyridin-2-yl)benzofuran-2-yl)benzyl)azetidine-3-carboxylic acid], the response was half-maximal at 2900 nM (EC50). With `O=C(O)C1CN(Cc2ccc(-c3cc4cc(Oc5ccccc5)ccc4o3)cc2)C1` [Reference Compound 19, 1-(4-(5-phenoxybenzofuran-2-yl)benzyl)azetidine-3-carboxylic acid] the figure was 510 nM and 92 nM; with `CC(C)CCc1ccc2oc(-c3ccc(CN4CC(C(=O)O)C4)cc3)cc2c1` [Reference Compound 20, 1-((4-(5-Isopentylbenzofuran-2-yl)phenyl)methyl)azetidine-3-carboxylic acid], 630 nM.

Regarding `CCCCOc1ccc2cc(-c3ccc(CN4CC(C(=O)O)C4)cc3)oc2c1` [Reference Compound 21, 1-((4-(6-Butoxybenzofuran-2-yl)phenyl)methyl)azetidine-3-carboxylic acid], the EC50 amounted to 2000 nM. With `CCCCOc1ccc2oc(-c3ccc(CN4CC(C(=O)O)C4)cc3OC)cc2c1` [Reference Compound 24] the figure was 420 nM and 700 nM.

`CCCCOc1ccc2oc(-c3ccc(CN4CC(C(=O)O)C4)s3)cc2c1` [Reference Compound 25, 1-((5-(5-butoxybenzofuran-2-yl)thiophen-2-yl)methyl)azetidine-3-carboxylic acid] registered an EC50 of 1600 nM.
